Key:
Type in all cases: binding
[1] = target: T1, opossum kidney PTH/PTHrp receptor clone, OK-O (Didelphis virginiana, UniProt P25107, I132F/S86P); test: Radioreceptor assay, COS cells expressing OK-O; details: FIG. 11
T1 construct: expressed in transfected cells; host or cells: COS cells, transient, plasmid OK-O (pcDNA I)
Method: [Nle^8,Nle^18,Tyr^34]bPTH-(1-34)amide (NlePTH), and [Tyr^36]PTHrP(1-36)amide(PTHrP) were iodinated with Na^125I (carrier free, New England Nuclear, Boston, Mass.) as previously reported (Segre et al., J. Biol. Chem. 254: 6980, 1979), and purified by reverse-phase HPLC. In brief, the labeled peptide was dissolved in 0.1% trifluoracetic acid (TFA), applied to a C18 Sep-pak cartridge (Waters Associates, Inc., Milford, Mass.) and eluted with a solution of 60% acetonitrile in 0.1% TFA. After lyophilization, the radioligand then was applied to C18-μBondapak column (3.9 mm×30 cm. Waters Associates) and eluted over 30 min with a linear gradient of 30-50% acetonitrile-0.1% TFA at a flow rate of 2 ml/min. The radioligand eluted in two peaks; the first peak, which eluted at approximately 38% acetonitrile, was used in these studies because it gave higher total and specific bindings. The specific activity was 500±75 mCi/mg, which corresponds to an average iodine-peptide ratio of 1.
COS-7 cells were grown in 15 cm plates in DMEM, 10% heat-inactivated […], 10 mg/L gentamycin until 80-90% confluent. Twenty-four hours after transfection by the DEAE/Dextran method (Sambrook et al., supra), with 1-2 μg of plasmid DNA, the cells were trypsinized and replated in multiwell plastic dishes (16 or 35 mm diameter, Costar, Cambridge, Mass.) at a cell concentration of 5×10^4 cells/cm^2). Cell number increased only slightly after transfection. After continuing culture for another 48 h, radiorecepter assays were performed. […]
Incubations were terminated by aspirating the buffer, and repeatedly (×3) washing the culture dishes, containing the adherent cells with chilled 0.9% NaCl solution, over a 15 sec period. Cell-bound radioactivity was recovered by the sequential addition (×3) of 1 N NaOH (200 μl) to each well. […] A second and third extraction with 1 N NaOH (200 μl) were combined with the first, and the total radioactivity was counted in a γ-spectrometer (Packard Instruments, Downers Grove, Ill.). […]

[2] = target: T2, opossum kidney PTH/PTHrP receptor clone, OK-H (Didelphis virginiana, UniProt P25107, I132F/S86P); test: Radioreceptor assay, COS cells expressing OK-H; details: FIG. 9
T2 construct: expressed in transfected cells; host or cells: COS cells, transient, plasmid OK-H (pcDNA I)
Method: (§1) In brief, the labeled peptide was dissolved in 0.1% trifluoracetic acid (TFA), applied to a C18 Sep-pak cartridge (Waters Associates, Inc., Milford, Mass.) and eluted with a solution of 60% acetonitrile in 0.1% TFA. After lyophilization, the radioligand then was applied to C18-μBondapak column (3.9 mm×30 cm. Waters Associates) and eluted over 30 min with a linear gradient of 30-50% acetonitrile-0.1% TFA at a flow rate of 2 ml/min.
(§2) COS-7 cells were grown in 15 cm plates in DMEM, 10% heat-inactivated […], 10 mg/L gentamycin until 80-90% confluent. Twenty-four hours after transfection by the DEAE/Dextran method (Sambrook et al., supra), with 1-2 μg of plasmid DNA, the cells were trypsinized and replated in multiwell plastic dishes (16 or 35 mm diameter, Costar, Cambridge, Mass.) at a cell concentration of 5×10^4 cells/cm^2). […] After continuing culture for another 48 h, radiorecepter assays were performed. The culture medium was replaced with buffer containing 50 mM Tris-HCL (pH 7.7), 100 mM NaCl, 2 mM CaCl2, 5 mM KCL, 0.5% heat-inactivated fetal bovine serum (GIBCO), and 5% heat-inactivated horse serum (KC Biological Inc., Lenexa, Kans.) immediately before studies were initiated.
(§3) Incubations were terminated by aspirating the buffer, and repeatedly (×3) washing the culture dishes, containing the adherent cells with chilled 0.9% NaCl solution, over a 15 sec period. Cell-bound radioactivity was recovered by the sequential addition (×3) of 1 N NaOH (200 μl) to each well. After 30 min at room temperature, the NaOH was transferred to a glass tube. A second and third extraction with 1 N NaOH (200 μl) were combined with the first, and the total radioactivity was counted in a γ-spectrometer (Packard Instruments, Downers Grove, Ill.).

[3] = target: T3, human kidney PTH/PTHrP receptor (Homo sapiens, UniProt Q03431, L389Q); test: Radioreceptor assay, COS-7 cells transiently expressing human kidney PTH/PTHrP receptor (HKrk); details: human versus rat receptor
T3 construct: The full-length human kidney PTH/PTHrP receptor cDNA, HKrk, was constructed using the BamHI/PvuII fragment of PCR clone #2 and HK-2; expressed in transfected cells; host or cells: COS-7 cells, transient (DEAE/Dextran), pcDNAI
T3 sequence (Q03431 27-593 L389Q): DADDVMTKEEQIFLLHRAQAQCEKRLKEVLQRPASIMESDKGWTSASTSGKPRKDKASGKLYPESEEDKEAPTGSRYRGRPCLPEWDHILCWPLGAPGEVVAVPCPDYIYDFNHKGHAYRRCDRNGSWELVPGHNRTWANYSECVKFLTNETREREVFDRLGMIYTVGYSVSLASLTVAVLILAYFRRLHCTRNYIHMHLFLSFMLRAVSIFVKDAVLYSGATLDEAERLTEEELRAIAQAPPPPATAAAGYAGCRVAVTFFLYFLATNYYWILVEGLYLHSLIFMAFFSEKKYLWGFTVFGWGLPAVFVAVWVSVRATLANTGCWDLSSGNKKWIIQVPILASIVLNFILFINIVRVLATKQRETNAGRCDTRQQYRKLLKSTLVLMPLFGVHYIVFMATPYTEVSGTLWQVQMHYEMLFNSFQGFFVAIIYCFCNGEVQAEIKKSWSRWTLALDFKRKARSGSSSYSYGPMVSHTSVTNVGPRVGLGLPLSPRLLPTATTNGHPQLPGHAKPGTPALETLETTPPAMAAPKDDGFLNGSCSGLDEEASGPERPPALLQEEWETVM
Method: as §1, §2, §3

[4] = target: T4, rat bone PTH/PTHrP receptor (Rattus norvegicus, UniProt P25961, E586G); test: Radioreceptor assay, COS cells expressing rat bone PTH/PTHrP receptor (R15B); details: COS cells expressing R15B, FIG. 13
T4 construct: expressed in transfected cells; host or cells: COS / COS-7 cells, transient, plasmid R15B (pcDNA I)
T4 sequence (P25961 27-591 E586G): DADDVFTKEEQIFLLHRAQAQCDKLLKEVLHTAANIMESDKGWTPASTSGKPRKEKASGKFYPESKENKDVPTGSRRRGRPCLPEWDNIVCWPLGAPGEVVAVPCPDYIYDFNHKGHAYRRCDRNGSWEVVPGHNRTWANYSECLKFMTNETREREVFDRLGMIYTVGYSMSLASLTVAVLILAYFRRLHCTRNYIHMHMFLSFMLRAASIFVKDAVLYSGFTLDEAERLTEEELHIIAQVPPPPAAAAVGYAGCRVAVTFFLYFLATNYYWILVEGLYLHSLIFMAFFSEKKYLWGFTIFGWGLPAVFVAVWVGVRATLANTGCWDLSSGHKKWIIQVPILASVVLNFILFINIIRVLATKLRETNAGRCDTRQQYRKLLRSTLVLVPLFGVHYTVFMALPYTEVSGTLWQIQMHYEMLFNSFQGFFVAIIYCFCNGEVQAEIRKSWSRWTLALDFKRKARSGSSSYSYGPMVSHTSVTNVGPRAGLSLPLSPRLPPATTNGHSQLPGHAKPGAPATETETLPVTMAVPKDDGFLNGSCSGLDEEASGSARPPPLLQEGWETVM
Method: as §1, §2, §3

T1 sequence (P25107 27-585 S86P/I132F): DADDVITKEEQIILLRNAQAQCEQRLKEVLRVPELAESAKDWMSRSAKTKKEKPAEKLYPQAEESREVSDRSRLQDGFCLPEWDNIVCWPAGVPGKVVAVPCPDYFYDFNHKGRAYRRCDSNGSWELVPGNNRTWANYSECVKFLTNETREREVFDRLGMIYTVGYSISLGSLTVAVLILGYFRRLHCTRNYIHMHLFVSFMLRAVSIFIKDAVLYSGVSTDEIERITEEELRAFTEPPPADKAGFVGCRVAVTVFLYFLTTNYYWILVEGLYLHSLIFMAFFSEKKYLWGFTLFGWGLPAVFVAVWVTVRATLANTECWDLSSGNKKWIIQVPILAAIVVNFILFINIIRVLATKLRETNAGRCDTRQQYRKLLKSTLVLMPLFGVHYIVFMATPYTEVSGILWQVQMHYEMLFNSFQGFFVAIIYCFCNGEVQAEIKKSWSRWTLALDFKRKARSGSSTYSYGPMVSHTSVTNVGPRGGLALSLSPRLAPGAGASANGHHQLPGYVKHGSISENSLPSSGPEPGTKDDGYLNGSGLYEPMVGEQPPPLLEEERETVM
T2 sequence (P25107 other isoform, or with tags, fused parts or gaps S86P/I132F): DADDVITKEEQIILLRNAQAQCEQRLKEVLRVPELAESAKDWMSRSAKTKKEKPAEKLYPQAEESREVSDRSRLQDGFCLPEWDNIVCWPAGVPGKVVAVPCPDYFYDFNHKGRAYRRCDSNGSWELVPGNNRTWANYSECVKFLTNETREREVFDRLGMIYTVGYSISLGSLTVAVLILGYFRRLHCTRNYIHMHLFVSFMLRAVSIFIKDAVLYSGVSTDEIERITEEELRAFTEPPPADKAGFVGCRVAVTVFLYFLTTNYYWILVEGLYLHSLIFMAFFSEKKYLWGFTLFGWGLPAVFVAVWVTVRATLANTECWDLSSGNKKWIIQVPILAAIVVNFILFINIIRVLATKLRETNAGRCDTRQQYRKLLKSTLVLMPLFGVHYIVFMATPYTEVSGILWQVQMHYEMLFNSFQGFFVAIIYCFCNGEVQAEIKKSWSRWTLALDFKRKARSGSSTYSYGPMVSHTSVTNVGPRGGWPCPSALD

How did the “inhibition of 125I-PTHrP binding by competitor” value (“inhibition of 125I-PTHrP binding” for short) [1] turn out when [Nle^8,18, Tyr^34]bPTH(3-34)amide was run?
The value was “inhibited”.

What about the “inhibition of 125I-PTHrP binding” value [2] of the same substance?
Its value is “inhibited”.

And the “fold higher affinity with expressed HKrK than with R15B” value [3]?
The value was 7 fold.

What about the “inhibition of 125I-PTHrP binding” value [4] of the same substance?
Its value is “inhibited”.

Which results are given for [Nle^8,18, Tyr^34]bPTH(7-34)amide?
inhibition of 125I-PTHrP binding by competitor [1]: inhibited; inhibition of 125I-PTHrP binding by competitor [2]: inhibited; inhibition of 125I-PTHrP binding by competitor [4]: inhibited
